# From patent publication US20090253634A1, “Methods and Compositions for the Treatment of Gastrointestinal Disorders” (MICROBIA, INC., priority 2005, published 2009)
# Bridge positions count the residues as written; N and C are the ends. Peptide text beside a SMILES is read from it.
# Legend:
# [1] = target: T1, aminopeptidase (Sus scrofa, UniProt P15145); test: in vitro proteolytic stability: aminopeptidase; format: in vitro ADME; details: 37° C., up to 24 h
# T1 construct: purchased Roche 102768
# T1 sequence (P15145 1-963): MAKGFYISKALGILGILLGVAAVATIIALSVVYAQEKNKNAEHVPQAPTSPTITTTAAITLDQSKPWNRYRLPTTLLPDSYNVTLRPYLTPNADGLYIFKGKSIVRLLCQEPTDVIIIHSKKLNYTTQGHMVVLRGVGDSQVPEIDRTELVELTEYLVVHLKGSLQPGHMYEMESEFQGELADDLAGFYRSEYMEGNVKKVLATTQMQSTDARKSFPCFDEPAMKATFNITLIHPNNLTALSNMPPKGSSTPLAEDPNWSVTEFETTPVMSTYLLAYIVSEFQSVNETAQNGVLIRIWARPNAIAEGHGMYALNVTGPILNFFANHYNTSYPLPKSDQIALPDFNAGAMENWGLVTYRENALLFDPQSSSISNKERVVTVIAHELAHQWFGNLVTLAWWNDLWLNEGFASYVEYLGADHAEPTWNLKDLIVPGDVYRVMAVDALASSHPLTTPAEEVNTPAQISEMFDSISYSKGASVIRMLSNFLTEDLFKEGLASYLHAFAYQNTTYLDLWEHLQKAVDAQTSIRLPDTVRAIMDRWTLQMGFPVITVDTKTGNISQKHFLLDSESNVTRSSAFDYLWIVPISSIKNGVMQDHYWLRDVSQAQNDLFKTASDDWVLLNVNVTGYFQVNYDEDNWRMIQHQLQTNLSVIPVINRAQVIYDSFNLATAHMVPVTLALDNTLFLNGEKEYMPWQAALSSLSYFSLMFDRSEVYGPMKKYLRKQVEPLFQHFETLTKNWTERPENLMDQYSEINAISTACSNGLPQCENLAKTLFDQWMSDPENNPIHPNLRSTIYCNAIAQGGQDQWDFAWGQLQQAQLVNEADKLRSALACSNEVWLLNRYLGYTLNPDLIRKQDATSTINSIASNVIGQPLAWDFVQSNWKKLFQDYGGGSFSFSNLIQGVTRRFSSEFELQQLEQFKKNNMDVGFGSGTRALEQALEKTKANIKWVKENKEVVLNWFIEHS
# Description: All samples were analyzed by LC/MS
# [2] = test system: response to colorectal distension; test: partial restraint stress-induced hyperalgesia model; format: in vivo, Wistar rats; details: oral 0.3 and 3.0 μg/kg; distending pressure 15 mm Hg; p<0.0001
# Description: Five groups of female Wistar rats (weighing 200-250 g each), were surgically prepared for electromyography as described (Morteau et al. 1994 Dig Dis Sci 39:1239-48) and were used to evaluate the effects of SEQ ID NO:3 on colorectal sensitivity and compliance after a 2 hour partial restraint stress session. Partial restraint stress (PRS), a relatively mild stress, was induced as previously described (Morteau et al., 1994 Dig Dis Sci 39:1239-48). Female rats were lightly anesthetized with diethyl ether and their shoulders, upper forelimbs and thoracic trunk were wrapped in a confining harness of paper tape to restrict, but not prevent body movements. Control sham-stress animals were anesthitized but not wrapped. […] Electrical activity was recorded with an electroencephalograph (Mini VIII, Alvar, Paris, France) using a short time constant (0.03 sec.) to remove low-frequency signals (<3 Hz) and a paper speed of 3.6 cm/minute. […] Colonic pressure and balloon volume were continuously monitored on a potentiometric recorder (L6514, Linseis, Selb, Germany) with a paper speed of 1.0 cm/minute. The number of spike bursts, corresponding to abdominal contractions, was evaluated per 5-minute period. Colorectal volumes were determined as the maximal volume obtained for each stage of distension using the potentiometric recorder. […] The values were expressed as mean±SEM.
# [3] = test system: PBQ-induced writhing; test: phenylbenzoquinone (PBQ)-induced writhing model
smiles,measurement,setting,value
"C[C@@H]1NC(=O)[C@@H]2CCCN2C(=O)[C@H](CC(N)=O)NC(=O)[C@@H]2CSSC[C@H](N)C(=O)N[C@H]3CSSC[C@H](NC1=O)C(=O)N[C@@H]([C@@H](C)O)C(=O)NCC(=O)N[C@H](C(=O)N[C@@H](Cc1ccc(O)cc1)C(=O)O)CSSC[C@H](NC(=O)[C@H](Cc1ccc(O)cc1)NC(=O)[C@H](CCC(=O)O)NC3=O)C(=O)N2 [SEQ ID NO:3] (H-CCEYCCNPACTGCY-OH; disulfide 1-6, 2-10, 5-13; N-terminus and C-terminus assumed)",Cleavage of SEQ ID NO: 3 by proteolytic substance,[1],not detectable
same,response to CRD after partial restraint stress,[2],reduced the response to CRD
same,writhings versus vehicle control,"[3]; 2.5 mg/kg dose, oral",Significant reductions in writhings
same,antinociceptive effect compared with indomethacin,[3]; PBQ writhing assay,antinociceptive effects in this visceral pain model comparable to the intermediate doses of indomethacin
